Reference: patent US20160038439A1, “Use of 7-a-[9-(4,4,5,5,5-pentafluoropentylsulfinyl)nonyl]-estra-1,3,5(10)- triene-3,17B-diol and derivatives thereof” (XI'ANLIBANG PHARMACEUTICAL TECHNOLOGY CO., LTD., priority 2013, published 2016)
Marks after values point to notes of the source that are not given here.

What was measured:
TNF-α [1] = assay: TNF-α level in serum of rats with arthritis (ELISA); type: in vivo, SD rats
Method: (§1) After inflamed model was successfully established in SD rats, the SD rats were randomly divided into model control group (12 rats), low, medium dose group (8 rats for each), and high dose group (12 rats) of test drug depending on body weight. Rats in the model control group were administered a blank fat emulsion injection (0.5 mL) by tail vein injection every other day for 7 days; rats in the low and medium dose group of test drug were administered a fat emulsion injection of a compound of Formula A (specifically including Compounds I-VI described hereafter) by tail vein injection every other day for 7 days; rats in the high dose group of test drug were administered a fat emulsion injection of a compound of Formula A by tail vein injection every other day for 14 days. 12 same models in the normal control group were also administered a blank fat emulsion injection. Indexes such as hindfoot joint score, hindfoot joint thickness measurement, TNF-α level in serum and hindfoot joint tissues, hindfoot joint pathological section and the like were used to evaluate efficacy of the drug.
(§2) Compound I used in the present invention was purchased from Xi′ an Libang Pharmaceutical Co., Ltd.; Compounds II-IV were synthesized by the following method. SD rats used in the present invention were purchased from Super-B&K Laboratory Animal Corp. Ltd.; chicken type II collagen was purchased from Sigma, Lot No. 87H5227; rat tumor necrosis factor-α [TNF-α] enzyme-linked immunoassay kit (ELISA) was purchased from Shanghai Biovol Biotech Co., Ltd., Lot No. BV-E12102201.
(§3) Chicken type II collagen was dissolved in 0.1 mol/L acetic acid at 4° C. while stirring so as to be thoroughly dissolved at a concentration of 2 mg/mL The resulting solution was put into a refrigerator at 4° C. overnight. Liquid paraffin and lanolin were mixed at a ratio of 2:1 (volume ratio), and the mixture was autoclaved to prepare an incomplete Freund's adjuvant (IFA). Bacillus Calmette Guerin (BCG) vaccine (60 mg) was inactivated at 80° C. for 1 hour and transferred to a mortar, into which was dropwise added IFA. After being uniformly grinded, the resulting mixture was pushed and sucked repeatedly by double-syringe to prepare a complete Freund's adjuvant (CFA), with the final concentration of BCG vaccine being 2 mg/mL. An equal amount of chicken type II collagen acid solution was mixed with CFA into a stable emulsion (containing 1 mg chicken type II collagen per milliliter).
(§4) 12 female SD rats were randomly selected from 192 female SD rats as normal control group. The remaining 180 rats was disinfected with iodine tincture. After being deiodinated with 75% ethanol, each of the rat was administered 150 μL collagen emulsion by intradermal injection at the base of the tail, and was administered 100 μL collagen emulsion by intradermal injection at the vola pedis of right hindfoot. Thus, totally 250 μL for each rat was administered. 7 days later, an equal amount of collagen emulsion was intraperitoneal injected as a secondary immune.
(§5) Animal grouping and administration: inflamed rats were divided into model control group, low, medium and high dose groups of test drug based on body weight.
(§6) Rats in each group were scored for the hindfoot joint and measured for the thickness of ankle joint before being inflamed. Normal rats were taken blood from orbital venous plexus. The serum of the blood was separated out and cryopreserved at −20° C. to detect cytokines. Rats were scored for joint after being inflamed for 3 days, and were measured for the thickness of ankle joint before administration (on the 19th day since being inflamed), on the 3rd day and 8th day after administration (on the […] since being inflamed). Rats in each group were taken blood from orbital venous plexus when inflammation was severe (on the 23rd day after being inflamed). The serum of the blood was separated out and cryopreserved at −20° C. […]

[2] = system: chicken type II collagen-induced arthritis model in SD rats; assay: Thickness of right hindfoot ankle joint by microcalliper, collagen-induced arthritis rats; type: in vivo
Method: as §1, §3, §4, §5
(§7) Rats in each group were scored for the hindfoot joint and measured for the thickness of ankle joint before being inflamed. Normal rats were taken blood from orbital venous plexus. The serum of the blood was separated out and cryopreserved at −20° C. to detect cytokines. Rats were scored for joint after being inflamed for 3 days, and were measured for the thickness of ankle joint before administration (on the 19th day since being inflamed), on the 3rd day and 8th day after administration (on the […] since being inflamed). Rats in each group were taken blood from orbital venous plexus when inflammation was severe (on the 23rd day after being inflamed). The serum of the blood was separated out and cryopreserved at −20° C. 8 rats for each group were sacrificed on the 28th day after being inflamed and were taken blood from intraperitoneal vein. The serum of the blood was separated out and was subjected to serological detection (TNF-α). The rest of rats were sacrificed on the 35th day after being inflamed, and histology index detection was carried out

[3] = system: chicken type II collagen-induced arthritis model in SD rats; assay: Hindfoot joint score in chicken type II collagen-induced arthritis model in SD rats; type: in vivo; set-up: scale not given here; settings: tail vein, every other day
Method: as §1, §3, §4, §5, §7

[4] = system: chicken type II collagen-induced arthritis model in SD rats; assay: Pathological examination score of hindfoot ankle joint of rats with arthritis; type: in vivo; settings: high dose group (1.40-2.16 mg/kg per compound), every other day for 14 days, n=4
Method: as §1, §3
as §4, with “Thus, totally 250 μL for each rat was administered. 7 days later, an equal amount of collagen emulsion was intraperitoneal injected as a secondary immune.” left out
Rats in each group were scored for the hindfoot joint and measured for the thickness of ankle joint before being inflamed. […] Rats were scored for joint after being inflamed for 3 days, and were measured for the thickness of ankle joint before administration (on the 19th day since being inflamed), on the 3rd day and 8th day after administration (on the 20th day since being inflamed). […]

TNF-α [5] = assay: TNF-α level in hindfoot ankle joint tissue of rats with arthritis; type: in vivo, SD rats
Method: as §1, §2, §3, §4, §5, §6

[6] = high dose group, the 3rd day after administration
[7] = high dose group, the 8th day after administration
[8] = low dose group, the 3rd day after administration
[9] = low dose group, the 8th day after administration
[10] = medium dose group, the 3rd day after administration
[11] = medium dose group, the 8th day after administration
[12] = high dose group, before administration (baseline)
[13] = low dose group, before administration (baseline)
[14] = medium dose group, before administration (baseline)
[15] = left ankle joint, high dose group
[16] = left ankle joint, low dose group
[17] = left ankle joint, medium dose group
[18] = right ankle joint, high dose group
[19] = right ankle joint, low dose group
[20] = right ankle joint, medium dose group

## 7-α-[9-(4,4,5,5,5-pentafluoropentylsulfinyl)nonyl]-estra-1,3,5(10)-triene-3-hydroxyl-17-undecanoyl [Compound II]
TNF-α [1]; [6]
  TNF-α level in serum (mean ± SD): 26.72 ± 35.26 pg/mL
TNF-α [1]; [7]
  TNF-α level in serum (mean ± SD): 25.65 ± 20.66 pg/mL
TNF-α [1]; [8]
  TNF-α level in serum (mean ± SD): 48.28 ± 94.84 pg/mL
TNF-α [1]; [9]
  TNF-α level in serum (mean ± SD): 201.35 ± 250.23 pg/mL
TNF-α [1]; [10]
  TNF-α level in serum (mean ± SD): 11.00 ± 9.39 pg/mL
TNF-α [1]; [11]
  TNF-α level in serum (mean ± SD): 75.12 ± 93.40 pg/mL
[2]; [12]
  Thickness of ankle joint (mean ± SD): 6.31 ± 0.52 mm
[2]; [6]
  Thickness of ankle joint (mean ± SD): 6.29 ± 0.69 mm
[2]; [7]
  Thickness of ankle joint (mean ± SD): 5.83 ± 0.61 mm
[2]; [13]
  Thickness of ankle joint (mean ± SD): 6.39 ± 0.68 mm
[2]; [8]
  Thickness of ankle joint (mean ± SD): 6.05 ± 0.55 mm
[2]; [9]
  Thickness of ankle joint (mean ± SD): 5.98 ± 0.19 mm
[2]; [14]
  Thickness of ankle joint (mean ± SD): 5.99 ± 0.57 mm
[2]; [10]
  Thickness of ankle joint (mean ± SD): 6.31 ± 0.54 mm
[2]; [11]
  Thickness of ankle joint (mean ± SD): 6.31 ± 0.51 mm
[3]; [12]
  Mean value of hindfoot joint score: 4.7
[3]; [6]
  Mean value of hindfoot joint score: 5.3**^#
[3]; [7]
  Mean value of hindfoot joint score: 4.9
[3]; [13]
  Mean value of hindfoot joint score: 4.9
[3]; [8]
  Mean value of hindfoot joint score: 4.8**
[3]; [9]
  Mean value of hindfoot joint score: 5.6^#
[3]; [14]
  Mean value of hindfoot joint score: 4.9
[3]; [10]
  Mean value of hindfoot joint score: 4.9**
[3]; [11]
  Mean value of hindfoot joint score: 4.9
[4]
  Joint lesion score (mean ± SD): 2.50 ± 2.65
TNF-α [5]; [15]
  TNF-α level in ankle (mean ± SD): 14.08 ± 4.09 pg/mL
TNF-α [5]; [16]
  TNF-α level in ankle (mean ± SD): 13.79 ± 4.68 pg/mL
TNF-α [5]; [17]
  TNF-α level in ankle (mean ± SD): 15.91 ± 5.84 pg/mL
TNF-α [5]; [18]
  TNF-α level in ankle (mean ± SD): 15.11 ± 4.32 pg/mL
TNF-α [5]; [19]
  TNF-α level in ankle (mean ± SD): 13.79 ± 3.26 pg/mL
TNF-α [5]; [20]
  TNF-α level in ankle (mean ± SD): 12.13 ± 3.35 pg/mL

## 7-α-[9-(4,4,5,5,5-pentafluoropentylsulfinyl)nonyl]-estra-1,3,5(10)-triene-3-hydroxyl-17-(undec-2-enoyl) [Compound V]
TNF-α [1]; [6]
  TNF-α level in serum (mean ± SD): 46.48 ± 101.05 pg/mL
TNF-α [1]; [7]
  TNF-α level in serum (mean ± SD): 12.35 ± 9.72 pg/mL
TNF-α [1]; [8]
  TNF-α level in serum (mean ± SD): 66.71 ± 121.06 pg/mL
TNF-α [1]; [9]
  TNF-α level in serum (mean ± SD): 123.73 ± 157.16 pg/mL
TNF-α [1]; [10]
  TNF-α level in serum (mean ± SD): 10.02 ± 14.59 pg/mL
TNF-α [1]; [11]
  TNF-α level in serum (mean ± SD): 23.44 ± 27.21 pg/mL
[2]; [12]
  Thickness of ankle joint (mean ± SD): 6.28 ± 0.44 mm
[2]; [6]
  Thickness of ankle joint (mean ± SD): 6.44 ± 0.60 mm
[2]; [7]
  Thickness of ankle joint (mean ± SD): 6.07 ± 0.41 mm
[2]; [13]
  Thickness of ankle joint (mean ± SD): 6.27 ± 0.36 mm
[2]; [8]
  Thickness of ankle joint (mean ± SD): 6.36 ± 0.64 mm
[2]; [9]
  Thickness of ankle joint (mean ± SD): 6.20 ± 0.52 mm
[2]; [14]
  Thickness of ankle joint (mean ± SD): 6.09 ± 0.45 mm
[2]; [10]
  Thickness of ankle joint (mean ± SD): 6.74 ± 0.44 mm
[2]; [11]
  Thickness of ankle joint (mean ± SD): 6.15 ± 0.37 mm
[3]; [12]
  Mean value of hindfoot joint score: 4.5
[3]; [6]
  Mean value of hindfoot joint score: 5.6^##
[3]; [7]
  Mean value of hindfoot joint score: 4.8
[3]; [13]
  Mean value of hindfoot joint score: 4.6
[3]; [8]
  Mean value of hindfoot joint score: 5.1**
[3]; [9]
  Mean value of hindfoot joint score: 5.9^##
[3]; [14]
  Mean value of hindfoot joint score: 4.4
[3]; [10]
  Mean value of hindfoot joint score: 5.7^##
[3]; [11]
  Mean value of hindfoot joint score: 4.4*
[4]
  Joint lesion score (mean ± SD): 3.75 ± 2.06
TNF-α [5]; [15]
  TNF-α level in ankle (mean ± SD): 12.76 ± 3.34 pg/mL
TNF-α [5]; [16]
  TNF-α level in ankle (mean ± SD): 13.56 ± 5.28 pg/mL
TNF-α [5]; [17]
  TNF-α level in ankle (mean ± SD): 14.25 ± 5.00 pg/mL
TNF-α [5]; [18]
  TNF-α level in ankle (mean ± SD): 13.68 ± 4.44 pg/mL
TNF-α [5]; [19]
  TNF-α level in ankle (mean ± SD): 12.71 ± 4.00 pg/mL
TNF-α [5]; [20]
  TNF-α level in ankle (mean ± SD): 11.73 ± 4.20 pg/mL
